Results on 5 compounds are retold here after publication PMC12642047, “Marine-derived Acremonium strain prioritization using untargeted metabolomics approach for the identification of cytotoxic cyclic depsipeptides” (BMC Biotechnology, 2025).

For orientation: IC50 means the concentration at which inhibition is half-maximal.

Structures are written as SMILES. Like-named read-outs stand apart in the source and are kept apart here. *1 amine or outer side, *2 acyl side, *3 side chain or, on linkers, in order; H or OH if unused. Where a SMILES comes first, the peptide text is derived from it. [ ]: non-standard residue; d: D form. ξ: configuration not given here. Pentanoyl(2-O,4-OH,5-Cl) = O=C(O)C(O)CC(O)CCl; NMeI = CC[CH](C)[CH](NC)C(=O)O; X1 = CC1CCN([*:1])C1C(=O)[*:2]; ξLac(3-iPr) = CC(C)CC(O)C(=O)O; NMeA = CN[CH](C)C(=O)O; βAla = NCCC(=O)O A value given as a limit tells only on which side of the number the result lay.

In assay [1] the test system is erythropoietin gene expression. More on the design: method as in PMID 9514014. Conditions: cited from earlier work.
For assay [2], the system named is MV-4-11 (biphenotypic B myelomonocytic leukemia). Description: MTS cytotoxicity assay (CellTiter 96 AQueous One), compounds, 72 h. Format: cell-based. The conditions noted are these: Homo sapiens, MV4-11, MV-4-11 cells. Here is the method: (§1) Compounds 1 − 5 were tested for their cytotoxic effects against several cancer cell lines, including MOLM-13 (acute myeloid leukemia), MV-4-11 (biphenotypic B myelomonocytic leukemia), THP-1 (acute monocytic leukemia), A2058 (human melanoma), MCF7 (human breast adenocarcinoma), and non-cancerous MRC-5 (normal lung fibroblast) using an MTS based CellTiter 96® AQueous One Solution Assay. In short, the cells were cultured in appropriate media supplemented with 10% fetal bovine serum (FBS): MOLM-13, MV-4-11 cells in RPMI medium, THP-1 cells in RPMI medium with ultra-low endotoxin FBS, MCF7 and MRC-5 in MEM Eagle medium along with other amino acid supplements, and A2058 cells in DMEM medium. After harvesting, they were seeded into 96-well plates. The cells were then treated with the test compounds at various concentrations and incubated for 72 h. Following the incubation period, an MTS assay was conducted, and the absorbance of the solution was measured using a microplate reader spectrophotometer (Tecan spark plate reader) at a wavelength of 490 nm. The half-maximum inhibitory concentration (IC50) values were calculated using the drc_3.0–1 package in R (Supplementary page S60-S61). DMSO (10%) was used as the positive control, and cell culture media as the negative control. All samples were tested in triplicate.
(§2) The results were plotted in a dose-response curve as shown in Figure S97 and the half-maximum inhibitory concentration (IC50) values were calculated using R. A 4-parameter logistic (4PL) dose-response model was applied to analyse the relationship between the concentration and the observed response (absorbance at 490 nm). […] The model was fitted to the experimental data using the drm function from the drc_3.0-1 package in R and IC50 values were determined as the concentration (μM) corresponding to 50% cell survival.
A general note: Tetrazolium dyes change colour on reduction, which living cells bring about.

In assay [3] the test system is MRC-5 (normal lung fibroblast). The assay is described as above. Type of assay: cell-based. The conditions noted are these: Homo sapiens, MRC5, MRC-5 normal lung fibroblasts. Here is the method:
as §1, §2

The test system of another assay is A2058 (human melanoma). The assay is described as above. Type of assay: cell-based. The conditions noted are these: A2058 cells. Here is the method: as §1, §2
The subject of assay [4] is MCF7 (human breast adenocarcinoma). The description is as above. Format: cell-based. The conditions noted are these: MCF7 cells. Here is the method:
as §1, §2

Assay [5] deals with MOLM-13 (acute myeloid leukemia). Described as above. Type of assay: cell-based. The conditions noted are these: Homo sapiens, MOLM-13 cells. Here is the method: as §1, §2
Assay [6] deals with THP-1 (acute monocytic leukemia). The assay is described as above. The conditions noted are these: Homo sapiens, THP-1 cells. Format: cell-based. Here is the method:
as §1, §2

A further assay relates to MCF7. Also on record: method as in PMID 30572686. Conditions: read-out: IC50 MCF7 (previously reported), cited from earlier work.
Assay [7] relates to HL-60 (acute promyelocytic leukemia). More on the design: method as in PMID 30572686. The conditions noted are these: HL-60 cells; read-out: IC50 HL-60 (previously reported); cited from earlier work.
Another assay concerns insects. More on the design: method as in doi:10.1021/np9601216. The conditions noted are these: cited from earlier work.
The test system of assay [8] is PDGF-BB/PDGFR-ββ signalling. Also on record: method as in PMID 27322468. Conditions: cited from earlier work.
Another assay has as its system plants. The conditions noted are these: cited from earlier work.

On to `CCC(C)C1NC(=O)C2CCCN2C(=O)C(CC(O)CCl)OC(=O)CCNC(=O)C(C)N(C)C(=O)C(C(C)CC)N(C)C1=O` (stereo not shown) [Compound 1, destruxin-A4 chlorohydrin] (cyclo([Pentanoyl(2-O,4-OH,5-Cl)]PI[NMeI][NMeA][βAla]); configuration not given here), for which the Erythropoietin gene expression result in assay [1] is given as “induced erythropoietin gene expression”. Moreover, the IC50 in assay [2] was found to be 700 nM; in [3], 2200 nM; with A2058 (human melanoma), 1100 nM; in [4] it was 800 nM; in assay [5] it was 400 nM; in [6], 2200 nM.
For `CCC(C)C1NC(=O)C2C(C)CCN2C(=O)C(CC(O)CCl)OC(=O)CCNC(=O)C(C)N(C)C(=O)C(C(C)CC)N(C)C1=O` (stereo not shown) [Compound 2, trichomide D] (cyclo([X1]I[NMeI][NMeA][βAla][Pentanoyl(2-O,4-OH,5-Cl)]); configuration not given here), the IC50 in the assay with MCF7 (MCF7 cell line) is 79 nM; with MCF7 (MCF7 cells), 79 nM; in [2], 800 nM; in [3] it was 1200 nM; with A2058 (human melanoma) (value marked * expressed in nM), 40 nM; in assay [4] (value marked * expressed in nM) it was 40 nM. For the same compound, the IC50 in [5] was 500 nM; in assay [6], 2100 nM; in [7] it was 107 nM.
For the compound `C=CCC1OC(=O)CCNC(=O)C(C)N(C)C(=O)C(C(C)CC)N(C)C(=O)C(C(C)CC)NC(=O)C2C(C)CCN2C1=O` (stereo not shown) [Compound 3, destruxin-A5], the Entomopathogenic activity result with insects is “entomopathogenic activity”. Also, the “Inhibition of PDGF-BB/PDGFR-ββ signalling” value in assay [8] is “selectively inhibit”. Besides, the IC50 in assay [2] turned out to be 7200 nM; in [3] it was 15200 nM; in the assay with A2058 (human melanoma), 6600 nM; in assay [4] it was 5200 nM; in assay [5] it was 3000 nM; in assay [6], 8700 nM.
`CCC(C)C1NC(=O)C2CCCN2C(=O)C(CC(C)C)OC(=O)CCNC(=O)C(C)N(C)C(=O)C(C(C)CC)N(C)C1=O` (stereo not shown) [Compound 4, homodestruxin B] (cyclo([ξLac(3-iPr)]PI[NMeI][NMeA][βAla]); configuration not given here): the Phytotoxic activity entry in the assay with plants is listed as “phytotoxic activity”. Moreover, the half-maximal inhibitory concentration (IC50) in assay [2] is 14600 nM; in assay [3] it was more than 40000 nM; with A2058 (human melanoma), 30200 nM; in [4], 12300 nM; in assay [5] it was 5500 nM; in assay [6] it was 16200 nM.
On to `CCC(C)C1NC(=O)C2C(C)CCN2C(=O)C(CC(C)C)OC(=O)CCNC(=O)C(C)N(C)C(=O)C(C(C)CC)N(C)C1=O` (stereo not shown) [Compound 5, homodestcardin] (cyclo([X1]I[NMeI][NMeA][βAla][ξLac(3-iPr)]); configuration not given here), for which the concentration for half-maximal inhibition (IC50) in [2] was determined as 12500 nM; in assay [3], 5600 nM; with A2058 (human melanoma) it was 2600 nM; in assay [4], 2100 nM; in assay [5], 3600 nM; in assay [6], 16000 nM.
